One assay deals with thromboxane synthetase. Put plainly: Inhibition of Thromboxane A2 biosynthesis in platelet rich plasma. In kind it is cell-based. Conditions: at 1 μg/ml. Here is the method: In this system, 6-(3-pyridylmethyl)indene-2-carboxylic acid inhibited thromboxane synthetase 95% as compared to control at 1 μg/ml.
The target in another assay is T1, TXA2 synthetase (Homo sapiens, UniProt P24557).
T1 construct: from tissue; host or cells: HPM (read as human platelet microsomes)
T1 sequence (P24557 1-533): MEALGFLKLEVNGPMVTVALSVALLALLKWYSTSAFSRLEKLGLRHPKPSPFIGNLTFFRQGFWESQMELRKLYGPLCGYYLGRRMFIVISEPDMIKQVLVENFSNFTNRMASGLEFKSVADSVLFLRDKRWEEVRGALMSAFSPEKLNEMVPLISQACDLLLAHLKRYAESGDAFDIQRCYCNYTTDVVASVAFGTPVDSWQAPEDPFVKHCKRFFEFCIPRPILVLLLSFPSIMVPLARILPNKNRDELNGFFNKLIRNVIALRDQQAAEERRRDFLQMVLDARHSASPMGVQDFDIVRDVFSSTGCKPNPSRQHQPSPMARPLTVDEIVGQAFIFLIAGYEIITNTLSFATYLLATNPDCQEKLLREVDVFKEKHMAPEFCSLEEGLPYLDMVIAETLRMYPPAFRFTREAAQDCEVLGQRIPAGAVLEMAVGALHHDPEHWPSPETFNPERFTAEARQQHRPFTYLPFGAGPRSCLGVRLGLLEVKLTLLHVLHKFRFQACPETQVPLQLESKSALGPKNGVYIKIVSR
In words: TXA2 synthetase inhibition: TXA2 produced by mixing PGH2 and HPM, measured by response of the rabbit aorta. The assay is classed as biochemical. Conditions: test compound added to HPM 5 minutes before mixing with PGH2, approximate. As to the method:
Potential inhibitors were tested by comparing the response of the rabbit aorta to the amount of TXA2 produced by mixing PGH2 and HPM without the test compound in the reaction medium and then the amount of TXA2 produced when the test compound was added to the HPM 5 minutes before the HPM was mixed with PGH2. […] For a discussion of TXA2 synthetase inhibition testing see, e.g., R. Gorman, supra.

Structures are written as SMILES. pIC50: −log10 of the molar value. Structures can show the parent of a compound that is named as a salt. Where two headings read alike, the source gives them in different places.

With `O=C(O)C1=Cc2ccc(Cc3cccnc3)cc2C1` [6-(3-Pyridylmethyl)indene-2-carboxylic Acid], the “inhibited thromboxane synthetase as compared to control” value in the assay on thromboxane synthetase stood at 95%.

For the molecule `O=C(O)c1cc2cc(NCc3cccnc3)ccc2[nH]1` [Sodium Salt], the pIC50 at TXA2 synthetase (read-out: approximate ED50 (lower bound)) is less than 6.46; on TXA2 synthetase (read-out: approximate ED50 (upper bound)), greater than 5.46.

The values are drawn from patent US4767865A, “3'-pyridinylalkylinden- and 3'-pyridinylalkylindol-2-carboxylic acids and analogs” (The Upjohn Company, priority 1987, dated 1988).
